According to patent US11464802B2, “3-substituted piperidine compounds for Cbl-b inhibition, and use thereof” (Nurix Therapeutics, Inc., priority 2019, dated 2022):

Legend:
[1] = tested on: primary human total T-cells; experiment: Primary human total T-cell activation: IL-2 secretion, Biological Example 13; type: cell-based; conditions: 48 hours, fold change over baseline; for fold induction at 0.3 µM: inhibitor 0.3 μM; for fold induction at 0.3 µM / fold induction at 3 µM: Table 13-1; for fold induction at 1 µM: inhibitor 1 μM; for fold induction at 3 µM: inhibitor 3 μM
Cbl-b [2] = molecular target: T1, Cbl-b (Homo sapiens (Human), UniProt Q13191); experiment: Cbl-b displacement assay (Cbl-b inhibition assay), Biological Example 12; type: binding; conditions: 0.125 nM Cbl-b final concentration (Low); Table 12-1; read-out: Cbl-b IC50 (Low)
T1 sequence (Q13191 36-427): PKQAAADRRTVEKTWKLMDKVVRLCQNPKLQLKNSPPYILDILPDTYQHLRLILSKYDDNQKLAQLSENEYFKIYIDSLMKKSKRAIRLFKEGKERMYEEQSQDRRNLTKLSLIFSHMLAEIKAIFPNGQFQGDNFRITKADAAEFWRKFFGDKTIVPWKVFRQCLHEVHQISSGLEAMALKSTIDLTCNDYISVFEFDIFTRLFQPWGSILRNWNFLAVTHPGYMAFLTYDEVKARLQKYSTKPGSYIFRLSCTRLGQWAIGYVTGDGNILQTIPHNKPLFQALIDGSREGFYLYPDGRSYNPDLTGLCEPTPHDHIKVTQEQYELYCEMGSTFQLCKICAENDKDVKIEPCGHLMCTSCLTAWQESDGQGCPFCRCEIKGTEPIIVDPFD
Experimental: (§1) Candidate compounds were evaluated for their ability to bind and inhibit Cbl-b, an E3 ubiquitin-protein ligase, as evidenced by their ability to displace a fluorophore-labeled probe bound to Cbl-b.
(§2) The ability of candidate compounds to displace a known inhibitor and thereby inhibit Cbl-b activity was measured by monitoring the interaction of Cbl-b with a fluorophore-labeled probe in the presence of the candidate compound. A truncated variant of Cbl-b (UniProt number Q13191) containing residues 36-427 and an Avitag at its N-terminus was co-expressed with BirA biotin ligase and purified using a standard protocol (see Dou et al., Nature Structural and Molecular Biology 8: 982-987, 2013; Avidity LLC).
(§3) Fluorescently-labeled inhibitor probe was synthesized and tagged with BODIPY FL. Cbl-b displacement assays were performed in a 384-well plate at room temperature in a 10 μl reaction volume by pre-incubating 0.5 nM Cbl-b or 0.125 nM Cbl-b (final concentration, indicated as “High” and “Low”, respectively) in an assay buffer containing 20 mM HEPES pH 7.5, 150 mM NaCl, 0.01% Triton X-100, 0.01% BSA and 0.5 mM TCEP in the presence of a candidate compound in 1% DMSO (final concentration) for 1 hour. After incubation in the presence of the candidate compound, the plate was incubated for an additional 1 hour in the presence of an approximate EC40 binding saturation consisting of 150 nM fluorescently-labeled inhibitor probe and 2 nM Streptavidin-Terbium (Cisbio) (final concentrations). Following the 1 hour incubation, the plates were read for TR-FRET signal at 520/620 nM using an Envision plate reader (Perkin Elmer).
(§4) The resulting data for the Cbl-b activity assays were analyzed using standard methods to determine the IC50 values for the tested compounds.

Cbl-b [3] = molecular target: T1, Cbl-b; experiment: Cbl-b displacement assay (Cbl-b inhibition assay), Biological Example 8; type: binding; conditions: 0.125 nM Cbl-b final concentration (Low); Table 8-1; read-out: Cbl-b IC50 (Low)
Experimental: as §1, §2, §3, §4

[4] = tested on: primary human total T-cells; experiment: Primary human total T-cell activation: IL-2 secretion, Biological Example 9; type: cell-based; conditions: 48 hours, fold change over baseline; for fold induction at 0.3 µM: inhibitor 0.3 μM; for fold induction at 0.3 µM / fold induction at 3 µM: Table 9-1; for fold induction at 1 µM: inhibitor 1 μM; for fold induction at 3 µM: inhibitor 3 μM
[5] = tested on: primary human total T-cells; experiment: Primary human total T-cell activation: CD25 surface staining, Biological Example 9; type: cell-based; conditions: 48 hours, fold change over baseline; for fold induction at 0.3 µM: inhibitor 0.3 μM; for fold induction at 0.3 µM / fold induction at 3 µM: Table 9-1; for fold induction at 1 µM: inhibitor 1 μM; for fold induction at 3 µM: inhibitor 3 μM
[6] = tested on: primary human total T-cells; experiment: Primary human total T-cell activation: CD25 surface staining, Biological Example 13; type: cell-based; conditions: 48 hours, fold change over baseline; for fold induction at 0.3 µM: inhibitor 0.3 μM; for fold induction at 0.3 µM / fold induction at 3 µM: Table 13-1; for fold induction at 1 µM: inhibitor 1 μM; for fold induction at 3 µM: inhibitor 3 μM
[7] = anti-CD3/anti-CD28 co-stimulation
[8] = anti-CD3/anti-CD28 co-stimulation, Table 13-1, read-out: IL-2 secretion CD3/CD28 1 μM
[9] = anti-CD3 alone, Table 13-1, read-out: IL-2 secretion CD3 1 μM
[10] = anti-CD3/anti-CD28 co-stimulation, Table 9-1, read-out: IL-2 secretion CD3/CD28 1 μM
[11] = anti-CD3 alone, Table 9-1, read-out: IL-2 secretion CD3 1 μM
[12] = anti-CD3/anti-CD28 co-stimulation, Table 9-1, read-out: CD25 staining CD3/CD28 1 μM
[13] = anti-CD3 alone, Table 9-1, read-out: CD25 staining CD3 1 μM
[14] = anti-CD3/anti-CD28 co-stimulation, Table 13-1, read-out: CD25 staining CD3/CD28 1 μM
[15] = anti-CD3 alone, Table 13-1, read-out: CD25 staining CD3 1 μM

SMILES	fold induction at 0.3 µM [1, 7]	fold induction at 1 µM [1, 8]	fold induction at 1 µM [1, 9]	IC50 (Cbl-b [2])	IC50 (Cbl-b [3])	fold induction at 0.3 µM [4, 7]	fold induction at 1 µM [4, 10]	fold induction at 1 µM [4, 11]	fold induction at 0.3 µM [5, 7]	fold induction at 1 µM [5, 12]	fold induction at 1 µM [5, 13]	fold induction at 0.3 µM [6, 7]	fold induction at 1 µM [6, 14]	fold induction at 1 µM [6, 15]	fold induction at 3 µM ([1]; anti-CD3 alone)	fold induction at 3 µM ([4]; anti-CD3 alone)	fold induction at 3 µM ([5]; anti-CD3 alone)	fold induction at 3 µM ([6]; anti-CD3 alone)
Cn1cnnc1C(F)(F)[C@](C)(F)c1cccc(N2Cc3c(cc(CN4CCC(F)(F)C4)cc3C(F)(F)F)C2=O)c1 [Compound 58]	< 10	< 10	< 0.33	> 5 nM	> 5 nM	< 10	< 10	< 0.33	< 1.24	1.25 to 1.39	< 1.04	< 1.24	1.25 to 1.39	< 1.04	–	–	–	–
Cn1cnnc1CC1(c2cccc(N3Cc4c(cc(CN5CCC6(CC6)C5)cc4C(F)(F)F)C3=O)c2)COC1 [Compound 59]	> 15	> 15	< 0.33	1 to 5 nM	1 to 5 nM	> 15	> 15	< 0.33	1.25 to 1.39	> 1.39	> 1.14	1.25 to 1.39	> 1.39	> 1.14	0.34 to 0.66	0.34 to 0.66	> 1.14	> 1.14
C[C@@H](c1cc2c(c(C(F)(F)F)c1)CN(c1cccc(C3([C@@H](F)c4nncn4C)COC3)c1)C2=O)N1CCC2(CC2)C1 [Compound 60]	> 15	> 15	0.34 to 0.66	1 to 5 nM	1 to 5 nM	> 15	> 15	0.34 to 0.66	> 1.39	> 1.39	> 1.14	> 1.39	> 1.39	> 1.14	0.34 to 0.66	0.34 to 0.66	> 1.14	> 1.14
C[C@@H](c1cc2c(c(C(F)(F)F)c1)CN(c1cccc(C3(Cc4nncn4C)COC3)c1)C2=O)N1CCC(F)CC1 [Compound 61]	> 15	> 15	0.34 to 0.66	1 to 5 nM	1 to 5 nM	> 15	> 15	0.34 to 0.66	> 1.39	> 1.39	> 1.14	> 1.39	> 1.39	> 1.14	0.34 to 0.66	0.34 to 0.66	> 1.14	> 1.14
